In patent US6471974B1, “N-chlorosulfamate compositions having enhanced antimicrobial efficacy” (S.C. Johnson & Son, Inc., priority 1999, dated 2002):
Entries after “also recorded” stand apart in the source; their conditions may differ.

Assays:
[1] = system: Staphylococcus aureus; assay: Sanitizer Test on glass slides, 1-minute contact time; format: cell-based; conditions: S. aureus, 500 and 200 ppm TAC
Protocol: (§1) Sanitizer Test: Glass slides measuring 18×36 mm were washed in a dishwasher, placed in glass petri dishes on 2 pieces of Whatman no. 2 filter paper and autoclaved. The slides were inoculated with a 10 μl sterile bacterial loop. The inoculum was spread over the upper surface of the slide being careful not to exceed the edges of the slide. The inoculum was a 24 hour culture having a concentration of approximately 10^9 organisms per ml. Following inoculation, the slides were incubated at 35° C. for 30±5 minutes to allow the slides to dry. The test product was then sprayed liberally onto the test surface (6 sprays/slide—approximately 6 ml of product) and the slides were allowed to stand for the desired contact time. The slides were removed from the petri dish using flamed forceps after exposure to the test product for the specified contact time and placed into test tubes containing 15.0 ml of the desired neutralizer for neutralization of the test product. Both 2× Letheen Broth (Tween 80 & Lecithin) and Dey/Engley neutralizing broths were separately utilized. Test bacteria was recovered by vortexing each test tube for 15 seconds. Serial dilutions were made using diluent. The pour plate technique using Tryptic Soy Agar was used to obtain plate counts. Parallel tests were run using a citrate-buffered (pH 5) solution of the dopant at a concentration equal to that in the doped test solutions or a 0.01% solution of Triton X-100 (isooctylphenoxy-polyethoxyethanol with 9-10 moles oxyethylene) in an identical manner to serve as controls. Blank parallel controls, using sterile, de-ionized water as the test product, were also evaluated.
However, a 1-minute contact time using a glass slide test surface was employed. Staphylococcus aureus was the test organism used. The test products that were used are described below.
Results are reported as a bacterial reduction (log reduction) of the formulation

[2] = system: Klebsiella pneumoniae (ATCC 4352); assay: as above; format: cell-based; conditions: K. pneumoniae, 100 ppm TAC
Protocol: as §1
(§2) The test products used are described below.

[3] = system: Staphylococcus aureus (ATCC 25923); assay: Sanitizer Test on glass slides, 5-minute contact time (parallels EPA Non-Food Contact Sanitizer Test DIS/TSS-10); format: cell-based; conditions: S. aureus, dopant to hypochlorite 0.20 to 1.0, 985 ppm TAC
Protocol: The test method used to evaluate antimicrobial efficacy was the Sanitizer Test described below.
as §1
A 5-minute contact time using-a glass slide test surface was employed.
as §2

[4] = Long-term stability at 40° C., NaOCl by iodometric titration and pH; format: physicochemical; conditions: up to Day 58
Protocol: Preparation of a stock 3.0% stabilized hypochlorite solution (0.75 to 1.0 mole ratio of sulfamate to NaOCl, pH 4.9 citric acid buffer): Anhydrous citric acid (210.0 g), sulfamic acid (88.0 g) and sodium hydroxide (93.0 g) were dissolved in deionized water (1897.54 g). The reaction mixture was allowed to cool to room temperature (approximately 1 hour).
All stabilized hypochlorite-containing test formulas were prepared by further dilution of the 3.0% stabilized NaOCl stock solution. Where applicable, the appropriate amount of each dopant was added to a known volume of diluted stock solution. Solutions containing varying mole ratios of sulfamate to NaOCl (1.0 to 1.0 and 1.5 to 1.0) were prepared by adding solid sodium sulfamate, as required, to 1.0 liter portions of the diluted stock solution. For all “doped” formulas, the ratio of NaOCl to dopant was 1.0:0.20.
Long-term stability samples were stored in a 40° C. incubator. After cooling to room temperature (23° C.) the concentration of NaOCl was determined via iodometric titration. The experimentally determined concentration of NaOCl is expressed in units of molarity (M). The recorded pH of each formula is shown in parentheses.

| SMILES | antimicrobial effectiveness of stabilized hypochlorite solutions containing the dopant (in words) [1] | antimicrobial effectiveness of stabilized hypochlorite solutions containing the dopant (in words) [2] | antimicrobial enhancing effect of dopant added to base stabilized hypochlorite composition (in words) [3] | effect of added dopant on long term stability of sulfamate-stabilized hypochlorite solutions (in words) [4] |
| --- | --- | --- | --- | --- |
| O=C1CCC(=O)N1 [succinimide] | have antimicrobial effectiveness | have antimicrobial effectiveness against K. pneumoniae | significantly enhances the antimicrobial activity |  |
| NS(=O)(=O)c1ccc(C(=O)O)cc1 [4-carboxybenzenesulfonamide] |  |  | significantly enhances the antimicrobial activity |  |
| CC1(C)NC(=O)NC1=O [5,5-dimethylhydantoin] | lowest levels of enhanced antimicrobial efficacy | have antimicrobial effectiveness against K. pneumoniae | significantly enhances the antimicrobial activity | does not alter the long termn stability |
| O=C1NC2NC(=O)NC2N1 (stereo not shown) [Glycoluril, glycoluril] |  |  | modest antimicrobial benefit |  |
| NS(=O)(=O)c1ccccc1 [benzenesulfonamide] | most effective | have antimicrobial effectiveness against K. pneumoniae | significantly enhances the antimicrobial activity | does not alter the long termn stability |
| Nc1nc(N)nc(N)n1 [melamine] |  |  | do not appear to have an antimicrobial enhancing effect |  |
| O=c1[nH]c(=O)[nH]c(=O)[nH]1 [cyanuric acid] |  |  | do not appear to have an antimicrobial enhancing effect |  |
| Cc1ccc(S(N)(=O)=O)cc1 [toluenesulfonamide] |  |  | significantly enhances the antimicrobial activity; also recorded: antimicrobial enhancing ability |  |
